The values below are quoted from earlier work in patent publication US5041577A, “Organogermanium compounds, processes for producing the same, and agent for inhibiting the activity of opioid peptide-degrading enzyme” (Asai Germanium Research Institute Co., Ltd., priority 1989, dated 1991).

The subject of data set [1] is spontaneous hypertensive rats.

Turning to `O=C(O)C[CH2][Ge](=[O])[O][Ge](=[O])[CH2]CC(=O)O` [carboxyethylgermanium sesquioxide], in the data set with amyloidosis, the amyloidosis-alleviating action entry is “amyloidosis-alleviating action”. The hypotensive action result in data set [1] is given as “shows a hypotensive action”. The antitumor action result with tumor is given as “antitumor action”. The interferon-inducing action entry with interferon is on record as “interferon-inducing action”. The macrophage-augmenting action result with macrophage is recorded as “macrophage-augmenting action”.
